This passage reports IC50, inhibition and Kd results from ChEMBL document CHEMBL4138305, “HTS by NMR for the Identification of Potent and Selective Inhibitors of Metalloenzymes” (ACS Med Chem Lett, 2018).

The pIC50 is the negative decadic logarithm of the IC50, by convention in mol/L. In general, inhibition refers to how much of the control response was suppressed. The term pKd denotes the Kd on a negative log10 scale, so that one unit is a factor of ten.

pIC50, pKd: −log10 of the molar value. The source made the active and inactive calls. The calls are words filed in the database; no cut-off is given here. Square brackets hold non-standard residues; d marks the D form. Peptide text beside a SMILES is read from it. * marks the point of attachment. d(hPhe) = N[C@H](CCc1ccccc1)C(=O)O; Bn = c1ccc(C*)cc1; NHOH = ON* Some results are limits rather than exact numbers.

Test [1] has as its target T1, Macrophage metalloelastase (Homo sapiens, UniProt P39900). Nature of the test: Inhibition of recombinant human MMP12 catalytic domain (Gly106 to […] residues) expressed in Escherichia coli BL21 codon plus using Mca-Pro-Leu-Gly-Leu-Dpa-Ala-Arg-NH2 as substrate by fluorescence assay.
Target sequence in this assay (P39900 whole entry, the tested form may be a part): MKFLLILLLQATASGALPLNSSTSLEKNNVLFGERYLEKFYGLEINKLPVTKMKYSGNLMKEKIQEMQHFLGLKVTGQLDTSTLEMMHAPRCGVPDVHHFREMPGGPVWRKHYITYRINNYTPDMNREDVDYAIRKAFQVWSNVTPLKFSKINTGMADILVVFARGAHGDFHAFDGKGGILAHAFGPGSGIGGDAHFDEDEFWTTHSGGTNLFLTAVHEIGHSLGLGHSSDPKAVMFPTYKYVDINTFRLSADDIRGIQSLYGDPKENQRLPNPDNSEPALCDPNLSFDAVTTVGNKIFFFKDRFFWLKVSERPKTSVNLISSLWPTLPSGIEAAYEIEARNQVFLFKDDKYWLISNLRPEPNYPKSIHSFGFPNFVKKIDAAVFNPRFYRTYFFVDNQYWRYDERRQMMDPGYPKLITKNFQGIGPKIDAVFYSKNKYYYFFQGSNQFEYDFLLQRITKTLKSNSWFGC
The target in test [2] is T2, Interstitial collagenase (Homo sapiens) (UniProt P03956).
T2 sequence (whole entry): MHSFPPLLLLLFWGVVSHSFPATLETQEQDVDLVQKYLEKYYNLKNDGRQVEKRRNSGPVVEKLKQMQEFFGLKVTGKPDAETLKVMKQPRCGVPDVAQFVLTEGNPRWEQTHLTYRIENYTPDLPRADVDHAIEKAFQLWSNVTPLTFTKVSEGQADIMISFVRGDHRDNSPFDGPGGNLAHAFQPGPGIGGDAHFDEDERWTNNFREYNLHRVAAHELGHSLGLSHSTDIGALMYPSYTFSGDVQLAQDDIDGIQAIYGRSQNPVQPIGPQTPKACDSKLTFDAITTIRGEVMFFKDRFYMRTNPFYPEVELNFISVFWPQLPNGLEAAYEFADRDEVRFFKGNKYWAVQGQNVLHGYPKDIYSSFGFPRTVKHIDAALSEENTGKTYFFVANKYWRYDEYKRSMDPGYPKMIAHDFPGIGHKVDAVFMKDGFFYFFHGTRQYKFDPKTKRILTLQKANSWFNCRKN
Nature of the test: Inhibition of MMP1 (unknown origin) at 1 uM.

Test [3] deals with Matrix metalloproteinase-9 (Homo sapiens) (UniProt P14780). As to the kind of experiment: Inhibition of MMP9 (unknown origin) at 1 uM.
Matrix metalloproteinase-9 (Homo sapiens), sequence (P14780 whole entry): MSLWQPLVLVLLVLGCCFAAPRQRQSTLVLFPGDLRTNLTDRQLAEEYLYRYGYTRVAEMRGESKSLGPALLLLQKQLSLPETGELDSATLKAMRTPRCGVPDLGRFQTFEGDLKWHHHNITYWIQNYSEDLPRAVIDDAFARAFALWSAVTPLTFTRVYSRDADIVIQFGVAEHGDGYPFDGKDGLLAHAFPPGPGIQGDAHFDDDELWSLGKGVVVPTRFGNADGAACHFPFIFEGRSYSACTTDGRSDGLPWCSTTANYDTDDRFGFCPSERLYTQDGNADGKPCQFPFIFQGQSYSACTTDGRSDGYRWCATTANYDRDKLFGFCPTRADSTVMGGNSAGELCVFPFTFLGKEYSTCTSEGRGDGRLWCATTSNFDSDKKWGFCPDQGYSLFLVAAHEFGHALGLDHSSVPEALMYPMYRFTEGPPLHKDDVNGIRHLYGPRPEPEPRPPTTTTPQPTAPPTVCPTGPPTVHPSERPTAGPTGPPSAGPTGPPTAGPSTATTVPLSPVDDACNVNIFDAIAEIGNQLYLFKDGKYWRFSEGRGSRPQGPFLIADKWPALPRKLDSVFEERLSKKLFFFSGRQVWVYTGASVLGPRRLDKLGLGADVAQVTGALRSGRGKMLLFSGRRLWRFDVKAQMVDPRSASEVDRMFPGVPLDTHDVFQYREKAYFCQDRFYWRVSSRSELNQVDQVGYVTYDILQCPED
For test [4], the target named is Matrix metalloproteinase-14 (Homo sapiens) (UniProt P50281). Nature of the test: Inhibition of MMP14 (unknown origin) at 1 uM.
Test [5] deals with Stromelysin-1 (Homo sapiens) (UniProt P08254). Nature of the test: Inhibition of recombinant human C-terminal DYKDDDDK tagged MMP3 expressed in mammalian expression system at 1 uM relative to control.
Stromelysin-1 (Homo sapiens), sequence (P08254 100-477 limits assumed): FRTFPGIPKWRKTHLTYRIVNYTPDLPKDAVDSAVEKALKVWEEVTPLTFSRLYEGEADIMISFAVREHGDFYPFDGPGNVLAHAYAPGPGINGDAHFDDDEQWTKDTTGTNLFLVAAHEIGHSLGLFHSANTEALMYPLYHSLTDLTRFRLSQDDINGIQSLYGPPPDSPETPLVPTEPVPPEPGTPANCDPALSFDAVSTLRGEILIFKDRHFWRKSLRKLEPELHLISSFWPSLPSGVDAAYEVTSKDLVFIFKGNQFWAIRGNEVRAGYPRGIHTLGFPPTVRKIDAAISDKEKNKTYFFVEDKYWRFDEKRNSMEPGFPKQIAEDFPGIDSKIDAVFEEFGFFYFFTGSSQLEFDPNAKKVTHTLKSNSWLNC
Test [6] has as its target T1, Macrophage metalloelastase. Particulars: 1 uM.
Target sequence in this assay (P39900 106-470 limits assumed): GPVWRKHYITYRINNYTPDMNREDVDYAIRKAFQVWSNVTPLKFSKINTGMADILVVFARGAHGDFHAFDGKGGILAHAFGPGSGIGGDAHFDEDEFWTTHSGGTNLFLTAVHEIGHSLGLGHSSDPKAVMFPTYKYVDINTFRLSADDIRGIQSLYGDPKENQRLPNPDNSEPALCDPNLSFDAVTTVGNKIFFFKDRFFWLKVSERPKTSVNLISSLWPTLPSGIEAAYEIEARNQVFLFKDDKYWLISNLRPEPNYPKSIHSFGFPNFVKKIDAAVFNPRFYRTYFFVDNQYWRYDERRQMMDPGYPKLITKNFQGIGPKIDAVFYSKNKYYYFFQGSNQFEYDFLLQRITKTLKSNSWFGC
Test [7] addresses T1, Macrophage metalloelastase. Nature of the test: Binding affinity to recombinant human MMP12 catalytic domain (Gly106 to […] residues) expressed in Escherichia coli BL21 codon plus by 1D 1H aliphatic NMR spectra analysis.
Target sequence in this assay (P39900 whole entry, the tested form may be a part): as the sequence (P39900 whole entry, the tested form may be a part) above
Test [8] has as its target T1, Macrophage metalloelastase. Nature of the test: Binding affinity to recombinant human MMP12 catalytic domain (Gly106 to […] residues) expressed in Escherichia coli BL21 codon plus by 2D [15N,1H] HMQC spectra analysis.
Target sequence in this assay (P39900 whole entry, the tested form may be a part): as above
Test [9] addresses T1, Macrophage metalloelastase. As to the kind of experiment: Inhibition of recombinant human C-terminal DYKDDDDK tagged MMP12 expressed in mammalian expression system at 55 to 100 nM.
Target sequence in this assay (P39900 106-470 limits assumed): as the sequence (P39900 106-470 limits assumed) above
Test [10] has as its target Stromelysin-1 (Homo sapiens) (UniProt P08254). As to the kind of experiment: Inhibition of recombinant human C-terminal DYKDDDDK tagged MMP3 expressed in mammalian expression system at 55 nM relative to control.

Take `CNC(=O)[C@H](Cc1c[nH]c2ccccc12)NC(=O)[C@@H](CC(=O)NO)CC(C)C` [ILOMASTAT]: the pIC50 in test [1] was 8.28. For the same compound, the inhibition entry in [2], in test [3], in test [4], in test [5] and in [6] was “Active” throughout.
`CC(=O)N[C@@H](COCc1ccccc1)C(=O)N[C@H](CCc1ccccc1)C(=O)N[C@H](Cc1ccccc1)C(=O)NO` (Ac-Ser(Bn)-[d(hPhe)]-[dF]-{NHOH}): the pKd in [7] and in test [8] was over 7.30 in each case. The pIC50 in test [1] is 7.26. The inhibition result in test [9], in test [2], in test [3] and in [4] was “Active” each time. In addition, the figures for the inhibition in test [5] and in test [10] were 78% and 19%, respectively.
